Measured values taken from ChEMBL document CHEMBL5696442, “Discovery of type II inhibitors of TGFβ-activated kinase 1 (TAK1) and mitogen-activated protein kinase kinase kinase kinase 2 (MAP4K2)” (J Med Chem, 2015).
The source made the active and inactive calls. The calls are words filed in the database; no cut-off is given here.

Experiments:
[1] = target: Serine/threonine-protein kinase 38 (Homo sapiens) (UniProt Q15208); experiment: Inhibition of NDR1 ACT labeling site in human A-375 cells at 0.5 uM by KiNativ Profiling analysis relative to control; assay type: cell-based
Chain of Serine/threonine-protein kinase 38 (Homo sapiens) (Q15208 2-465 limits assumed): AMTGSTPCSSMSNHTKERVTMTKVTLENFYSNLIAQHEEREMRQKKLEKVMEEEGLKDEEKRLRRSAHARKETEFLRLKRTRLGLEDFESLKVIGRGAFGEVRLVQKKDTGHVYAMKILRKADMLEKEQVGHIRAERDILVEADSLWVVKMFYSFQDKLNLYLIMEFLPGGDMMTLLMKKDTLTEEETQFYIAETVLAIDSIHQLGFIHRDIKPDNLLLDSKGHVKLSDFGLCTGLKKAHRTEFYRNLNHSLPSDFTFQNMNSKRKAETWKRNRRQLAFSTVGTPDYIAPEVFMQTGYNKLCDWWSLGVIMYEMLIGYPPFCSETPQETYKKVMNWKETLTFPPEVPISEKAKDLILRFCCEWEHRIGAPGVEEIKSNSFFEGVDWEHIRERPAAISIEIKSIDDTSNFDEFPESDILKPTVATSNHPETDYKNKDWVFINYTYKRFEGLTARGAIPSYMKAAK

[2] = target: Serine/threonine-protein kinase 33 (Homo sapiens) (UniProt Q9BYT3); experiment: Inhibition of STK33 (unknown origin) at 10 uM by Ambit Kinomescan binding assay
[3] = target: Serine/threonine-protein kinase Nek7 (Homo sapiens) (UniProt Q8TDX7); experiment: Inhibition of NEK7 (unknown origin) at 10 uM by Ambit Kinomescan binding assay
[4] = target: T1, Serine/threonine-protein kinase D3 (Homo sapiens) (UniProt O94806); experiment: Inhibition of PRKD3 (unknown origin) at 10 uM by Ambit Kinomescan binding assay
T1 sequence (whole entry): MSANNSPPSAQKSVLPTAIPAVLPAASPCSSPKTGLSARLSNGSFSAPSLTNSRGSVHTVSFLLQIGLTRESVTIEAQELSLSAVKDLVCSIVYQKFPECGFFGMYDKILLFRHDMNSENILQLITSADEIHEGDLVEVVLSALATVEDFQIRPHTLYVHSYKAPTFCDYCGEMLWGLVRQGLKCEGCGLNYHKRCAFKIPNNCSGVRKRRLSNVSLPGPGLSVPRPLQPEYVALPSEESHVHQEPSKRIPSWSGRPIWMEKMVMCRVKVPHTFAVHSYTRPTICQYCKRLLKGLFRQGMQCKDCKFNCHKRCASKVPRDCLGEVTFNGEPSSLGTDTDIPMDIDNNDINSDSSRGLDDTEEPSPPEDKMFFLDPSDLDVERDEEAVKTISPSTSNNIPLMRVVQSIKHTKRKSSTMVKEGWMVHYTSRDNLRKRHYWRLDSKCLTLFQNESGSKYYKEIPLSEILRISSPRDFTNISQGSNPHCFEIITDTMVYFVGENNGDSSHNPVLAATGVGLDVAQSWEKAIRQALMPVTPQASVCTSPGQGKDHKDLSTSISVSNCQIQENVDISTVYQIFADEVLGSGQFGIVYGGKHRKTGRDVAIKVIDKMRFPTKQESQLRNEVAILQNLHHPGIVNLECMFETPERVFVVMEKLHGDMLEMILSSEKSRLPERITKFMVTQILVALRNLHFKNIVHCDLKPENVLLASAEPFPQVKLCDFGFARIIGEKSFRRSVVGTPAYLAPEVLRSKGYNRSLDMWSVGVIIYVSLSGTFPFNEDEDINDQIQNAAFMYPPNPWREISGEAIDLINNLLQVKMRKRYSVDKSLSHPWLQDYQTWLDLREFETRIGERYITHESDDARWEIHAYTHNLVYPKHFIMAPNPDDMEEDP

[5] = target: Calcium/calmodulin-dependent protein kinase kinase 1 (Homo sapiens) (UniProt Q8N5S9); experiment: Inhibition of CAMKK1 (unknown origin) at 10 uM by Ambit Kinomescan binding assay
[6] = target: MAP kinase-interacting serine/threonine-protein kinase 1 (Homo sapiens) (UniProt Q9BUB5); experiment: Inhibition of MKNK1 (unknown origin) at 10 uM by Ambit Kinomescan binding assay
Chain of MAP kinase-interacting serine/threonine-protein kinase 1 (Homo sapiens) (Q9BUB5 whole entry, looked up): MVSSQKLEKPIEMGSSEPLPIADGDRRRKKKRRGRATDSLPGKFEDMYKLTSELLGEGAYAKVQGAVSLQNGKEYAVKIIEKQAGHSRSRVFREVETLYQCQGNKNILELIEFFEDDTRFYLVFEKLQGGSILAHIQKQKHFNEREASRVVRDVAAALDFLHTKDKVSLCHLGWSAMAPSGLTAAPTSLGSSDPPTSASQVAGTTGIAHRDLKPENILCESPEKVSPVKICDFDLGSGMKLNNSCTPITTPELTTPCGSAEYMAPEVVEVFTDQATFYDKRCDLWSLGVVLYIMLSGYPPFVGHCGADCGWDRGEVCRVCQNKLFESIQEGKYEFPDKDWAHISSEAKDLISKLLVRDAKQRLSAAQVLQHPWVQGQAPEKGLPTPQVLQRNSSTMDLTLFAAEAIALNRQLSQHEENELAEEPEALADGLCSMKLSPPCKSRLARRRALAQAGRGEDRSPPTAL

[7] = system: Tyrosine-protein kinase ABL1 (Homo sapiens), P00519 [E255K]; experiment: Inhibition of ABL1 E255K mutant (unknown origin) at 10 uM by Ambit Kinomescan binding assay relative to control
Chain of Tyrosine-protein kinase ABL1 (Homo sapiens), P00519 [E255K] (P00519 whole entry E255K): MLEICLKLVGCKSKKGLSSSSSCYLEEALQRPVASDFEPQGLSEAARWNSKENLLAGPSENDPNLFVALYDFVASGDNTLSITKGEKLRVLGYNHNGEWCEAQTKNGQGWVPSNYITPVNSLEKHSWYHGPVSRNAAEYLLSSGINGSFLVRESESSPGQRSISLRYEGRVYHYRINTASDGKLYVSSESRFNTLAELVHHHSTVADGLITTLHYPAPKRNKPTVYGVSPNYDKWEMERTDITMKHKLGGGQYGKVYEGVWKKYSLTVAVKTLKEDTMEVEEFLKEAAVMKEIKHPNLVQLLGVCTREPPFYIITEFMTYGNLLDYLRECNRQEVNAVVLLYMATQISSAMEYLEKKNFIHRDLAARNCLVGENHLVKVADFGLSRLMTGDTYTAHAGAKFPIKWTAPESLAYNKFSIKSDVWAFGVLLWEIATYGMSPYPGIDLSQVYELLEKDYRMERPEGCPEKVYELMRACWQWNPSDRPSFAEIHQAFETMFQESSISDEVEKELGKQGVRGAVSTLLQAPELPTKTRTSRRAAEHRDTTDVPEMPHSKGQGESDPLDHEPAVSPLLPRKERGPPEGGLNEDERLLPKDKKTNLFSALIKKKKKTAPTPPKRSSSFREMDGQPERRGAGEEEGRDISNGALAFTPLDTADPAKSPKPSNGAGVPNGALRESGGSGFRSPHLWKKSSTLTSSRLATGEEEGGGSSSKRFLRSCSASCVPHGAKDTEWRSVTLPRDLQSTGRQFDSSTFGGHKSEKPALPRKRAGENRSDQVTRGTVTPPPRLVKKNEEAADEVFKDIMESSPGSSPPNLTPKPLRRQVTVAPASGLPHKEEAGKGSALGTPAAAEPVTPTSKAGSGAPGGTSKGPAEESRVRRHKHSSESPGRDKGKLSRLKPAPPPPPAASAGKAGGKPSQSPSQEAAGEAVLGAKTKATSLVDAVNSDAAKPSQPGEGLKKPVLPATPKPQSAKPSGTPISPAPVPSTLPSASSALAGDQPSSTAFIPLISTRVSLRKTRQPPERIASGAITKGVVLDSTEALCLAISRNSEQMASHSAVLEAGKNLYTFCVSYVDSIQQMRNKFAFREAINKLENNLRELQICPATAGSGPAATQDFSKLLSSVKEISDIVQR

[8] = target: PKC alpha and beta-2 (Homo sapiens) (UniProt P17252+P05771); experiment: Inhibition of PKCalpha/beta K2 labeling site in human Huh-7 cells at 10 uM by KiNativ Profiling analysis relative to control; assay type: cell-based
Chain of PKC alpha and beta-2 (Homo sapiens) (P05771 whole entry, looked up): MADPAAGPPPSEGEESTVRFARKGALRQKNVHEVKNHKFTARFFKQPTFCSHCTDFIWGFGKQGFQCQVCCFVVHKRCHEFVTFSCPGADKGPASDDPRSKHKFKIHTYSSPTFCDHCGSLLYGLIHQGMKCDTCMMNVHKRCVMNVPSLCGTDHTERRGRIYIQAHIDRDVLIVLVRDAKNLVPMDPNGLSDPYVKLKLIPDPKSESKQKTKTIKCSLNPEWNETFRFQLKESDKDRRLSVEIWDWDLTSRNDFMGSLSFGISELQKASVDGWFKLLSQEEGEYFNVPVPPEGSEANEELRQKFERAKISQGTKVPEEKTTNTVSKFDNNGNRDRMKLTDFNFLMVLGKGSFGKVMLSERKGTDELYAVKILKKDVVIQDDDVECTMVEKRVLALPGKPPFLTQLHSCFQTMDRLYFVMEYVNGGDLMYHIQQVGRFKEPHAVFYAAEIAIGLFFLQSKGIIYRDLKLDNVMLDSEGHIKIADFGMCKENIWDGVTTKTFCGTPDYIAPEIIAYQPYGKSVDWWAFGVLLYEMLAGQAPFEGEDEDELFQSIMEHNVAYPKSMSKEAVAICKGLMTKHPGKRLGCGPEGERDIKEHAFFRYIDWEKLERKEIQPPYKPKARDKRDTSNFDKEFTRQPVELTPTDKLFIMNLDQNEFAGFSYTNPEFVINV

[9] = target: Glycogen synthase kinase-3 beta (Homo sapiens) (UniProt P49841); experiment: Inhibition of GSK3B Lys2 labeling site in human Huh-7 cell lysate at 1 uM by KiNativ Profiling analysis relative to control; assay type: subcellular
Chain of Glycogen synthase kinase-3 beta (Homo sapiens) (P49841 whole entry, looked up): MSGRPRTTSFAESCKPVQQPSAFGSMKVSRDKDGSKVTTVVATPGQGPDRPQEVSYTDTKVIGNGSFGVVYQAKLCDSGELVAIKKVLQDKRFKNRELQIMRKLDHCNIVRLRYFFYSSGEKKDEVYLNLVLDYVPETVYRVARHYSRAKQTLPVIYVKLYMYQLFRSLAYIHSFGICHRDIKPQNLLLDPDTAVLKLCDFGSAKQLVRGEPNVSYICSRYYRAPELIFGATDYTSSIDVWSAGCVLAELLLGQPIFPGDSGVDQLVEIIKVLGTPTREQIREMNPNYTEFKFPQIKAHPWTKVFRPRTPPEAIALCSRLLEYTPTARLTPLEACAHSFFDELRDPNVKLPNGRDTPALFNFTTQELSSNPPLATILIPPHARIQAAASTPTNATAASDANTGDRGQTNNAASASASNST

[10] = target: Activin receptor type-1-like (Homo sapiens) (UniProt P37023); experiment: Inhibition of ACVRL1 (unknown origin) at 1 uM by Ambit Kinomescan binding assay relative to control
[11] = system: Mast/stem cell growth factor receptor Kit (Homo sapiens), P10721 [D816H]; experiment: Inhibition of KIT D816H mutant (unknown origin) at 1 uM by Ambit Kinomescan binding assay relative to control; values are per cent of control
Chain of Mast/stem cell growth factor receptor Kit (Homo sapiens), P10721 [D816H] (P10721 whole entry D816H): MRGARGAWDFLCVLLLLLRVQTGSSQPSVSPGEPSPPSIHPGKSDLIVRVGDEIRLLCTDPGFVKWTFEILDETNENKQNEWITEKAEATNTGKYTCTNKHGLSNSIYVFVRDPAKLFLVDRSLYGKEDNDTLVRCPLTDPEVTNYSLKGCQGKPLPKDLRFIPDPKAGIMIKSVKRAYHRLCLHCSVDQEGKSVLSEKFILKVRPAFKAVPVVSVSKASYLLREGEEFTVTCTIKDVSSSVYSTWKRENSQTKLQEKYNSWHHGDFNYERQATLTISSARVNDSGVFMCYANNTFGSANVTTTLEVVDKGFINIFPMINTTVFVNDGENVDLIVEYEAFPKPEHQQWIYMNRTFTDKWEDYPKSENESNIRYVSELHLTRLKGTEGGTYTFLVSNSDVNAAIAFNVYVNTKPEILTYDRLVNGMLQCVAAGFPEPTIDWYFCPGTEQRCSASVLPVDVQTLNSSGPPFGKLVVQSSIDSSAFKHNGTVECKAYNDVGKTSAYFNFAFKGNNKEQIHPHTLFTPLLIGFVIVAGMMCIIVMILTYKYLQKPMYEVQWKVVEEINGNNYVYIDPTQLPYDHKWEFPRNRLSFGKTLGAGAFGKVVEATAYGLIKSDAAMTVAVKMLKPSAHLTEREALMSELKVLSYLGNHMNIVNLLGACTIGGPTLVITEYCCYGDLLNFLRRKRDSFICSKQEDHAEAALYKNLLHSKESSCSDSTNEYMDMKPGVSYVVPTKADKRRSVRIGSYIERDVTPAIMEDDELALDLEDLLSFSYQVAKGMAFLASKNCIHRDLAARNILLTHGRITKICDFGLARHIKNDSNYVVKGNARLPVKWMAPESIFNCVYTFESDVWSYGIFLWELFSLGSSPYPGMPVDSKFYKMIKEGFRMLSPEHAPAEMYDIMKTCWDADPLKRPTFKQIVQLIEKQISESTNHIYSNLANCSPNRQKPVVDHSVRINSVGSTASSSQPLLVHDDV

[12] = target: Serine/threonine-protein kinase 38-like (Homo sapiens) (UniProt Q9Y2H1); experiment: Inhibition of NDR2 Lys1 labeling site harbouring DTGHIYAMKILR in human A-375 cells at 5 uM by KiNativ Profiling analysis relative to control; assay type: cell-based
[13] = target: T2, Ephrin type-B receptor 4 (Homo sapiens) (UniProt P54760); experiment: Inhibition of EPHB4 (unknown origin) at 1 uM by Ambit Kinomescan binding assay relative to control
T2 sequence (whole entry): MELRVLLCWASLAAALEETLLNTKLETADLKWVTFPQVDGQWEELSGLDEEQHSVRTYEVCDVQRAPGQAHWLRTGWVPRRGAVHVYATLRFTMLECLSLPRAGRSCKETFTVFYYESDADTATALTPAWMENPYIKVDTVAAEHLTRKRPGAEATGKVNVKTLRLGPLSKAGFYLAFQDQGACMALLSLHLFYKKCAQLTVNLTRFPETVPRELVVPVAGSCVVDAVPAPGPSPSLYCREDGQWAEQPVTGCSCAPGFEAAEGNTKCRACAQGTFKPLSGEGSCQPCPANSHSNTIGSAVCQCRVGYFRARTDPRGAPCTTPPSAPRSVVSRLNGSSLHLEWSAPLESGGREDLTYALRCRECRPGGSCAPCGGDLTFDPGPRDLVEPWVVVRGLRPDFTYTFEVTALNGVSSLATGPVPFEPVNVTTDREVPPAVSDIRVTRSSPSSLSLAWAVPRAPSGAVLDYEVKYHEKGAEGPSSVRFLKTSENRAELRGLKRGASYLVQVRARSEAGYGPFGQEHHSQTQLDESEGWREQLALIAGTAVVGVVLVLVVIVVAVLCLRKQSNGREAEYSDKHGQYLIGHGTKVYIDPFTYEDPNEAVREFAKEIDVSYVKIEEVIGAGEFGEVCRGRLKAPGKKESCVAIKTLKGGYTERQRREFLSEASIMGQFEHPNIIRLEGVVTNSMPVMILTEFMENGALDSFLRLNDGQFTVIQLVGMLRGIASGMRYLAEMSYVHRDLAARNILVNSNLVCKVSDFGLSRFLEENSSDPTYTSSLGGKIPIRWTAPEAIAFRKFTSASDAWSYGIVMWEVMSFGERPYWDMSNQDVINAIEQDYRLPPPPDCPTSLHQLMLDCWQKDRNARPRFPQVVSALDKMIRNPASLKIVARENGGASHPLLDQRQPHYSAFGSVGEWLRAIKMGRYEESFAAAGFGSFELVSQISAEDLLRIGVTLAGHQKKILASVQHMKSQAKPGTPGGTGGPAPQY

[14] = target: Bone morphogenetic protein receptor type-1A (Homo sapiens) (UniProt P36894); experiment: Inhibition of BMPR1A (unknown origin) at 1 uM by Ambit Kinomescan binding assay relative to control; values are per cent of control

Question: What does the source list for `CCN1CCN(Cc2ccc(NC(=O)c3ccc(C)c(Oc4ccnc5[nH]ccc45)c3)cc2C(F)(F)F)CC1`?
Answer: inhibition [1]: -4.5%; inhibition [2]: inactive; inhibition [3]: inactive; inhibition [4]: inactive; inhibition [5]: inactive; inhibition [6]: inactive; inhibition [7]: 1.2%; inhibition [8]: 1.3%

Question: How did the inhibition [9] turn out when `CNc1cc(Oc2cc(C(=O)Nc3cc(N4CCN(C)CC4)cc(C(F)(F)F)c3)ccc2C)ncn1` was run?
Answer: Its inhibition is 6%.

Question: How did the inhibition [10] turn out when `CCN1CCN(Cc2ccc(NC(=O)c3ccc(C)c(/C=C/c4cnc5[nH]ccc5c4OC)c3)cc2C(F)(F)F)CC1` was run?
Answer: Its inhibition is 100%.

Question: What about the residual activity [11] of the same compound?
Answer: The residual activity was 25%.

Question: What about the inhibition [12] of the same compound?
Answer: Its inhibition is 20.7%.

Question: What about the inhibition [13] of the same compound?
Answer: The inhibition was 21%.

Question: And the residual activity [14]?
Answer: The residual activity was 100%.
